According to ChEMBL document CHEMBL5223152, “Recent advances toward the development of Hsp90 C-terminal inhibitors” (Bioorg Med Chem Lett, 2023):
Each block holds one compound with its values, some of them ahead of it.

Columns and labels:
[1] = tested on: UMSCC22B; experiment: Antiproliferative activity against human UMSCC22B cells assessed as inhibition of orosphere formation incubated for 10 to 14 days by light microscopic analysis; type: functional, cell-based
[2] = target: T1, Heat shock protein HSP 90-alpha (Homo sapiens, UniProt P07900); experiment: Binding affinity to recombinant human HSP90alpha assessed as dissociation constant measured for 300 secs by SPR analysis
[3] = tested on: SK-BR-3; experiment: Antiproliferative activity against human SK-BR-3 cells assessed as inhibition of cell proliferation; type: functional, cell-based
[4] = tested on: NCI-H1299; experiment: Antiproliferative activity against human NCI-H1299 cells assessed as inhibition of cell growth incubated for 3 days by MTT assay; type: functional, cell-based; conditions: NCI-H1299, 72 h
[5] = tested on: MDA-MB-231; experiment: Antiproliferative activity against human MDA-MB-231 cells assessed as inhibition of cell growth incubated for 48 to 72 hrs by MTS assay; type: functional, cell-based
[6] = tested on: MCF7; experiment: Antiproliferative activity against human MCF7 cells assessed as inhibition of cell proliferation incubated for 72 hrs by MTS assay; type: functional, cell-based; conditions: MCF7, 72 h
[7] = tested on: NCI-H1299; experiment: Antiproliferative activity against human NCI-H1299 cells assessed as inhibition of cell growth; type: functional, cell-based
[8] = tested on: NCI-H1299; experiment: Antiproliferative activity against human NCI-H1299 cells assessed as reduction in cell viability incubated for 2 to 3 days by MTT assay; type: functional, cell-based
[9] = tested on: SK-BR-3; experiment: Antiproliferative activity against human SK-BR-3 cells assessed as inhibition of cell proliferation incubated for 72 hrs by MTS proliferation assay; type: functional, cell-based; conditions: SK-BR-3, 72 h
[10] = target: Heat shock protein HSP90 (Homo sapiens, UniProt P07900+P08238); experiment: Binding affinity to NT-647 labelled recombinant HSP90 (unknown origin) C-terminal domain assessed as dissociation constant by microscale thermophoresis analysis; type: protein assay
[11] = tested on: MCF7; experiment: Antiproliferative activity against human MCF7 cells assessed as inhibition of cell proliferation by MTS assay; type: functional, cell-based
[12] = tested on: SK-N-MC; experiment: Antiproliferative activity against human SK-N-MC cells assessed as inhibition of cell proliferation by MTS assay; type: functional, cell-based
[13] = tested on: Jurkat; experiment: Antiproliferative activity against human jurkat cells assessed as reduction in cell viability incubated for 48 hrs by MTT assay; type: functional, cell-based
[14] = target: T1, Heat shock protein HSP 90-alpha; experiment: Binding affinity to human recombinant HSP90alpha C-terminal domain (563 to 732 residues) expressed in Escherichia coli BL21(DE3) cells assessed as dissociation constant incubated for 15 mins by microscale thermophoresis analysis
[15] = tested on: K562; experiment: Antiproliferative activity against BCR-ABL1 positive human K562 cells assessed as inhibition of cell growth incubated for 72 hrs by ATP-based celltiter Glo assay; type: functional; conditions: K562, 72 h
[16] = target: T1, Heat shock protein HSP 90-alpha; experiment: Inhibition of recombinant GST-tagged HSP90alpha NTD (9 to 236 residues) (unknown origin) ATPase activity expressed in Escherichia coli BL21 (DE3)
[17] = tested on: HCT-116; experiment: Antiproliferative activity against human HCT-116 cells assessed as reduction in cell viability incubated for 72 hrs by MTT assay; type: functional, cell-based; conditions: HCT-116, 72 h
[18] = tested on: UACC-62; experiment: Antiproliferative activity against human UACC-62 cells assessed as inhibition of cell growth; type: functional
[19] = tested on: NCI-H1299; experiment: Antiproliferative activity against human NCI-H1299 cells assessed as reduction in cell viability incubated for 5 days by MTT assay; type: functional, cell-based; conditions: NCI-H1299, 120 h
[20] = Antiproliferative activity against human LNCap-LN3 cells assessed as inhibition of cell growth incubated for 24 hrs by CellTiter-glo luminescence assay; type: functional, cell-based; conditions: LNCaP-LN3, 24 h
[21] = target: T1, Heat shock protein HSP 90-alpha; experiment: Binding affinity to recombinant HSP90alpha (unknown origin) assessed as dissociation constant incubated for 30 mins by intrinsic fluorescence based spectroscopic analysis
[22] = target: Heat shock protein HSP 90-beta (Homo sapiens, UniProt P08238); experiment: Binding affinity to recombinant HSP90beta (unknown origin) assessed as dissociation constant incubated for 30 mins by intrinsic fluorescence based spectroscopic analysis
Chain of Heat shock protein HSP 90-beta (P08238 whole entry): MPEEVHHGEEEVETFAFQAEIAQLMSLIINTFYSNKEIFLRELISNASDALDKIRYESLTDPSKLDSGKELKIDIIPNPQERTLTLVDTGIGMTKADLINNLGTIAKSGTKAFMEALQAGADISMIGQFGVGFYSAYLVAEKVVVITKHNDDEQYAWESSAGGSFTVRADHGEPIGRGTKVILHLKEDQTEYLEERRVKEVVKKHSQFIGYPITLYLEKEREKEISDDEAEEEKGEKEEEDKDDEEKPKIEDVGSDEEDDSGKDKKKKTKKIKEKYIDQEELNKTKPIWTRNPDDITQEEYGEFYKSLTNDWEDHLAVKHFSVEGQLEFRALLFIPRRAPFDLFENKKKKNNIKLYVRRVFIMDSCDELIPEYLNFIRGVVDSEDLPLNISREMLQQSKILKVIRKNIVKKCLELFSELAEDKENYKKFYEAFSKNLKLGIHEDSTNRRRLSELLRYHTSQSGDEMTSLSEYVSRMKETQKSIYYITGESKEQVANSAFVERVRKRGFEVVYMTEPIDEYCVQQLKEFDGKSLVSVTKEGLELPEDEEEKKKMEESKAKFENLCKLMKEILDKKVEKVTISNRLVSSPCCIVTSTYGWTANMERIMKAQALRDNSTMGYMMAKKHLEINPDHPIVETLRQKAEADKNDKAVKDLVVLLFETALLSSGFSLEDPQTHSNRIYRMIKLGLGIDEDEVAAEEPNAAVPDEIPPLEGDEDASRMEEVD

Compound: COc1cccc(-c2cccc(NC(=O)Nc3cc4ccc(OC5CCN(C)CC5)c(C)c4oc3=O)c2)c1
IC50 [1]: 1000 nM

Kd [2]: 20.9 nM
Compound: COc1ccc(NCC(=O)Nc2ncc(Cc3ccc(Cl)c(Cl)c3)s2)cc1

IC50 [3]: 680 nM
Compound: COc1cccc(-c2cc(C(=O)Nc3ccc(/C=C/c4ccc(OC5CCN(C)CC5)cc4)cc3)ccc2OC)c1

IC50 [4]: 1000 nM
Compound: COc1cc2nccc(C(OC(C)=O)c3ccc4c(c3OC)C=CC(C)(C)O4)c2cc1OC (stereo not given)

IC50 [5]: 5000 nM
Compound: COc1cc2nccc(C(OC(=O)C3CC3)c3ccc4c(c3)C=CC(C)(C)O4)c2cc1OC (stereo not given)

IC50 [3]: 99 nM
Compound: Cc1ccc(Cn2cc(C(=O)Nc3ccc(/C=C/c4ccc(OC5CCN(C)CC5)cc4)cc3)nn2)cc1

IC50 [6]: 31800 nM
Compound: Cc1ccc(Cl)c(OCC2(O)CCN(Cc3ccc(OCCN4CCOCC4)cc3)CC2)c1

IC50 ([7]; Homo sapiens, NCI-H1299, read-out: IC50): 1000 nM
Compound: COc1cc2nccc(C(OC(=O)C3CC3)c3ccc4c(c3OC)C=CC(C)(C)O4)c2cc1OC (stereo not given)

IC50 [8]: 230 nM
Compound: COc1cc(NC(=O)c2ccc3c(c2OC)C=CC(C)(C)O3)ccc1OCCc1ccncc1

IC50 [9]: 2000 nM
Compound: COc1cc(NC(=O)c2ccc3c(c2OC)C=CC(C)(C)O3)ccc1OCCC1CCCCN1 (stereo not given)

Kd [10]: 27400 nM
Compound: CC[C@@H](C)[C@@H](ONC(=O)[C@H](ONC(=O)[C@@H](Cc1ccccc1)ONC(=O)[C@@H](Cc1ccccc1)ONC(=O)OCc1ccccc1)[C@H](C)CC)C(=O)NO[C@H](CC(C)C)C(=O)NO[C@H](CC(C)C)C(N)=O

IC50 [11]: 1400 nM | IC50 [12]: 2800 nM
Compound: Nc1c(C(=O)c2ccc(-c3ccc(Br)cc3)cc2)sc2nc3c(c(-c4ccccc4)c12)CNCC3

Compound: Cc1c(OC2CCN(C)CC2)ccc2cc(NC(=S)Nc3cccc(Cl)c3)c(=O)oc12
IC50 [1]: 20000 nM

IC50 [13]: 15200 nM
Compound: CCOC(=O)C1=C(C)N(c2ccccc2)C(=O)NC1c1cc(O)ccc1Br (stereo not given)

Kd [14]: 3420 nM | IC50 [15]: 1300 nM
Compound: CCC(C)n1c(C(=O)NC2CN=C(C(=O)NC)N(CC(C)C)C2=O)ncc(NC(=O)c2ncc(NC(=O)c3ccccc3)c(=O)n2Cc2ccc(OC)cc2)c1=O (stereo not given)

IC50 [16]: 119000 nM
Compound: CC(C)(C)CC(C)(C)NCC(O)COc1ccc(C(C)(C)c2ccc(OCC(O)CNC(C)(C)CC(C)(C)C)cc2)cc1 (stereo not given)

IC50 [17]: 330 nM
Compound: COc1ccc2c(c1OC)O[C@]13C(=O)N4O[C@H]5[C@H](O)C=C[C@@H](Cl)[C@@]5(O)C[C@@]4(SS[C@H]21)C(=O)N3C

Compound: COc1cccc(-c2cc(NC(=O)Nc3cc4ccc(OC5CCN(C)CC5)c(C)c4oc3=O)ccc2C)c1
IC50 [18]: 360 nM

EC50 [19]: 230 nM
Compound: COc1cc(NC(=O)c2ccc3c(c2OC)C=CC(C)(C)O3)ccc1OCCc1cccnc1

IC50 [7]: 140 nM
Compound: COc1ccc(CC(=O)c2ccc3c(c2OC)C=CC(C)(C)O3)cc1OC

Kd [21]: 191000 nM | Kd [22]: 726000 nM
Compound: Cc1c(OCCC2CCCCN2)ccc2cc(NC(=O)Nc3ccc(Cl)cc3)c(=O)oc12 (stereo not given)
IC50 [20]: 2000 nM
